Laboratory results published in patent US9422254B2, “Methoxyacrylate-based fungicide and methods for preparing and using the same” (priority 2008, dated 2016).

Key:
[1] = Ames test; format: cell-based
Experimental: (§1) The toxicological indexes of the compound were tested following the standard GB15670-1995 “Toxicological test methods of pesticides for registration” by Tongji Medical College, Huazhong University of Science and Technology.

[2] = Acute toxicity test on zebra fish; conditions: in vivo
Experimental: (§2) After acute toxicity and Ames test had been finished, environmental toxicity test was conducted following “Guideline for Environmental Safety Evaluation of Chemical Pesticides” of Agriculture Ministry of China by Shenyang Chemical Research Institute/Supervision and Test Center for Pesticide Safety Evaluation and Quality Control.

[3] = test system: Alternaria alternata; test: microbe, parasite or virus in culture; format: cell-based; conditions: read-out: Inhibition rate (%)
[4] = test system: Rhizoctonia solani (rice sheath blight); test: microbe, parasite or virus in culture; format: cell-based; conditions: read-out: Inhibition rate (%)
[5] = test system: Helminthosporum maydis; test: organism not typed; format: cell-based
[6] = test system: guinea pig skin; test: Skin sensitization test; format: in vivo
Experimental: as §1

[7] = test system: rat; test: Acute oral test; format: in vivo; conditions: rat
Experimental: as §1

[8] = Acute oral test; format: in vivo, rat; conditions: in vivo
Experimental: as §1

[9] = test system: Cucumber gray mold (F-109); test: In vivo micro-screening assay
Experimental: In Vivo Micro-Screening Assay
(§6) To further study the fungicidal spectrum of the compound of Formula (I), indoor in vivo micro-screening assay were carried out on cucumber gray mold, cucumber scab, cucumber sclerotinia rot, cucumber brown spot, pepper phytophthora blight, and rice sheath blight.
(§7) Medicament to be tested and medicament of control groups were prepared as needed in a sunny morning. Cucumber gray mold, cucumber scab, cucumber brown spot, cucumber sclerotinia rot, and rice sheath blight were medicated by spray, and after air dry, pathogens of cucumber scab and of cucumber brown spot were inoculated through spraying spore suspension respectively, pathogens of cucumber gray mold, of cucumber sclerotinia rot, and of rice sheath blight were inoculated through lawn foliage. Pepper phytophthora blight was medicated and inoculated by root-irrigation. Subsequently, all seedlings were cultured in wet environment.
(§8) After the disease of control groups were serious, spot area, disease index, and the diseased seedling rate were investigated to calculate the efficacy. Cucumber scab, cucumber brown spot, and pepper phytophthora blight were investigated by grading method. The spot extension area of cucumber gray mold and of rice sheath blight was investigated. The diseased seedling rate of cucumber sclerotinia rot was investigated. Disease index=Σ(amount of infected diseased leaves in a grade×relative value of the grade)×100/(total amount of leaves×9); Diseased seedling rate (%)=(total amount of seedlings−amount of diseased seedlings)/total amount of seedlings×100% Prevention and treatment effect (%)=(disease of control group−disease of experiment group)/disease of control group×100%

[10] = molecular target: T1, cytochrome bc1 complex of pig heart (Sus scrofa, UniProt P24964); test: Enzyme activity test, Complex III; format: biochemical
T1 construct: The test target is cytochrome bc1 complex of pig heart; from tissue; host or cells: pig heart
Experimental: Take NADH oxidase (NOX), succinate-cytochrome C oxidase (SCO), and Complex III as target enzymes, the inhibitory activity of the compound of Formula (I) was tested.
^b The test target is cytochrome bc1 complex of pig heart.

[11] = test system: Colletotrichum lagenarium; test: microbe, parasite or virus in culture; format: cell-based; conditions: Colletotrichum orbiculare, read-out: Inhibition rate (%)
[12] = test system: rabbit's skin; test: Skin stimulation test; format: in vivo
Experimental: as §1

[13] = test system: Diaporthe medusae; test: microbe, parasite or virus in culture; format: cell-based
[14] = test system: quail; test: Acute oral toxicity test on quail; format: in vivo
Experimental: as §2

[15] = test system: Helminthosporium torulosum; test: microbe, parasite or virus in culture; format: cell-based; conditions: Corynespora torulosa, read-out: Inhibition rate (%)
[16] = test system: rabbit's eye; test: Eye stimulation test; format: in vivo
Experimental: as §1

[17] = test system: Sphaerotheca uliginea; test: Fungicidal activity on potted cucumber, powdery mildew; format: in vivo
Experimental: (§3) 1. Fungicidal Activity Assay on Potted Plants at Room Temperature
(§4) Take cucumber downy mildew and powdery mildew as examples, the assay were carried out as follows:
2) Sphaerotheca uliginea: Pathogen of Cucumber Powdery Mildew
A cucumber seedling having uniform growth status and in the true leaf stage was collected, sprayed with the compound of Formula (I), and dried in the shade for 24 hrs. Fresh spore was collected from cucumber leaves infected by Sphaerotheca uliginea, filtered with a double-layer gauze, and prepared into a suspension (1.0×10^5 cells/mL). The suspension was sprayed to the dried cucumber seedling. Subsequently, the inoculated seedling was dried naturally and cultured under light in a thermostatic chamber (21-23° C.). 7-8 days later, compared with the blank control, the disease of the cucumber seedlings was graded. Based on the resultant disease index, the efficacy was calculated.
(§5) The grading standard follows “Guidelines on efficacy evaluation of pesticides”, and the efficacy is calculated on the basis of the disease index.

[18] = test system: Pseudoperonospora cubensis; test: Fungicidal activity on potted cucumber, downy mildew; format: in vivo
Experimental: as §3, §4
1) Pseudoperonospora cubensis: Pathogen of Cucumber Downy Mildew
Two cucumber seedlings (the growing point had been removed) having the same growth status and in the true leaf stage were collected, sprayed with the compound of Formula (I), and dried naturally for 24 hrs for inoculation. Fresh cucumber leaves infected by downy mildew were collected, and sporangium on the back was rinsed with distilled water (about 10° C.) dipped with a brush. The obtained sporangium was prepared into a suspension (2-3×10^5 cells/mL). The suspension was sprayed uniformly with an inoculation sprayer (0.1 MPa) to the naturally-dried cucumber seedlings. Subsequently, the seedlings were cultured in an artificial climate chamber. The relative humidity was maintained at 100%, with temperature of between 15 and 20° C. 24 hrs later, the relative humidity was maintained at 90%, with temperature of between 15 and 24° C. 5 days later, compared with the control, the disease of the cucumber seedlings was graded. Based on the resultant disease index, the efficacy was calculated.
as §5

[19] = test system: Cucumber scab (strain HX); test: In vivo micro-screening assay
Experimental: In Vivo Micro-Screening Assay
as §6
Cucumber scab strain: HX; cucumber brown spot strain: SDHGHB060509; cucumber sclerotinia rot strain: HGJH; pepper phytophthora blight strain: NSGP; and rice sheath blight strain: WK-1.
as §7, §8

[20] = 3.125 mg/L, secondary screening
[21] = Pseudoperonospora cubensis, secondary screening

T1 sequence (P24964 whole entry, one chain of several): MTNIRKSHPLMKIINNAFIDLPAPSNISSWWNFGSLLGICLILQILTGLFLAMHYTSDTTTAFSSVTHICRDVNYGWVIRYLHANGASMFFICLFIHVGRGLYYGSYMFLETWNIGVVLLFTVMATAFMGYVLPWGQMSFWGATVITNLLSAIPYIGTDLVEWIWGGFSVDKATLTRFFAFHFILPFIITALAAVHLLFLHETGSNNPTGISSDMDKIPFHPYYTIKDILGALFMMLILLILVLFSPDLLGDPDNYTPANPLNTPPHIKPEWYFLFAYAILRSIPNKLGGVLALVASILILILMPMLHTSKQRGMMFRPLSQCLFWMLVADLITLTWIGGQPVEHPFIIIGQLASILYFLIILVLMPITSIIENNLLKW

## CO/C=C(/C(=O)OC)c1ccccc1CSc1nc2cc(OC)ccc2s1 [Compound of Formula (I), (E)-methyl 3-methoxy-2-(2-((5-methoxy-benzothiazol-2-ylthio)methyl)phenyl)acrylate]
[1]
  Ames test: Negative
[2]; 24 hrs
  LC50 at 24 h: 0.069 µg/mL
[2]; 48 hrs
  LC50 at 48 h: 0.06 µg/mL
[2]; 72 hrs
  LC50 at 72 h: 0.047 µg/mL
[2]; 96 hrs
  LC50 at 96 h: 0.043 µg/mL
[3]; 0.3 mg/L
  inhibition at 0.3 µg/mL: 37.2%
[3]; 3 mg/L
  inhibition at 3 µg/mL: 41.8%
[3]; 30 mg/L
  inhibition at 30 µg/mL: 43.1%
[4]; 0.3 mg/L
  inhibition at 0.3 µg/mL: 42.7%
[4]; 3 mg/L
  inhibition at 3 µg/mL: 62.1%
[4]; 30 mg/L
  inhibition at 30 µg/mL: 68.9%
[5]
  in vitro effect: particularly effective
[5]; 0.3 mg/L, read-out: Inhibition rate (%)
  inhibition at 0.3 µg/mL: 86.1%
[5]; 3 mg/L, read-out: Inhibition rate (%)
  inhibition at 3 µg/mL: 100%
[5]; 30 mg/L, read-out: Inhibition rate (%)
  inhibition at 30 µg/mL: 100%
[6]
  Skin sensitization: Weak allergen (grade I) on guinea
[7]
  Toxicity (acute oral test): Low toxicity
[8]; Female rat
  LD50: > 5000 mg/kg
[8]; Male rat
  LD50: > 5000 mg/kg
[9]; 100 mg/L
  Efficacy (%): 92.19%
  Spot area (mm^2): 8.03 mm^2
[9]; 500 mg/L
  Efficacy (%): 96.43%
  Spot area (mm^2): 3.67 mm^2
[9]; cucumber gray mold, strains not distinguished
  prevention and treatment effect: good prevention and treatment effect
[10]
  IC50: 4 nM
[10]; azoxystrobin as control agent
  inhibitory activity on Complex III compared with azoxystrobin: much higher inhibitory activity
[11]; 0.3 mg/L
  inhibition at 0.3 µg/mL: 42%
[11]; 3 mg/L
  inhibition at 3 µg/mL: 44.2%
[11]; 30 mg/L
  inhibition at 30 µg/mL: 50.7%
[12]
  Skin stimulation: No stimulation on rabbit's skin
[13]
  in vitro effect: particularly effective
[13]; Diaporthe, 0.3 mg/L, read-out: Inhibition rate (%)
  inhibition at 0.3 µg/mL: 55.3%
[13]; Diaporthe, 3 mg/L, read-out: Inhibition rate (%)
  inhibition at 3 µg/mL: 80.1%
[13]; Diaporthe, 30 mg/L, read-out: Inhibition rate (%)
  inhibition at 30 µg/mL: 87.2%
[14]
  LC50: LC50 > 1100 mg/kg.bw
[15]; 0.3 mg/L
  inhibition at 0.3 µg/mL: 11.3%
[15]; 3 mg/L
  inhibition at 3 µg/mL: 18.4%
[15]; 30 mg/L
  inhibition at 30 µg/mL: 21.4%
[16]
  Eye stimulation: Mild stimulation on rabbit's eye
[17]; [20]
  Efficacy (%): 85.24%
[17]; 6.25 mg/L, secondary screening
  Efficacy (%): 97.22%
[17]; 12.5 mg/L, Table 1
  Efficacy (%): 97.22%
[17]; 12.5 mg/L, secondary screening
  Efficacy (%): 98.50%
[17]; 25 mg/L, Table 1
  Efficacy (%): 100%
[17]; 25 mg/L, secondary screening
  Efficacy (%): 100%
[17]; 50 mg/L, Table 1
  Efficacy (%): 100%
[17]; 50 mg/L, secondary screening
  Efficacy (%): 100%
[17]; 100 mg/L, Table 1
  Efficacy (%): 100%
[17]; 200 mg/L, Table 1
  Efficacy (%): 100%
[17]; powdery mildew
  preventive effect: good preventive effect
[17]; secondary screening
  EC50: 0.96 µg/mL
  EC90: 3.87 µg/mL
[18]; [20]
  Efficacy (%): 69.92%
[18]; 6.25 mg/L, secondary screening
  Efficacy (%): 82.89%
[18]; 12.5 mg/L, Table 1
  Efficacy (%): 87.34%
[18]; 12.5 mg/L, secondary screening
  Efficacy (%): 91.50%
[18]; 25 mg/L, Table 1
  Efficacy (%): 94.16%
[18]; 25 mg/L, secondary screening
  Efficacy (%): 98.15%
[18]; 50 mg/L, Table 1
  Efficacy (%): 100%
[18]; 50 mg/L, secondary screening
  Efficacy (%): 100%
[18]; 100 mg/L, Table 1
  Efficacy (%): 100%
[18]; 200 mg/L, Table 1
  Efficacy (%): 100%
[18]; [21]
  EC50: 1.52 µg/mL
  EC90: 9.76 µg/mL
[18]; downy mildew
  preventive effect: good preventive effect
[19]
  prevention and treatment effect: good prevention and treatment effect
[19]; 100 mg/L
  Disease index: 0
  Efficacy (%): 100.00%
[19]; 500 mg/L
  Disease index: 0
  Efficacy (%): 100.00%
